Assay results published in the supplement of paper PMC11061612.

Assays:
[1] = test system: JVM-3 (B-Cell Non-Hodgkin's Lymphoma); assay: Bliss excess, mean over the matrix (fraction); higher = more synergy
In short: (§1)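 Cell lines grown in DMEM/F12 or RPMI with 10% FBS were plated in 1536-well plates and held 24 hours at 37°C, 5% CO2 before 72 hours of exposure to two-drug dose matrices, with DMSO typically at 0.2%. CellTiter-Glo 2.0 luminescence gave viability, which was converted to inhibition. Vehicle wells were set to 0 and blank wells to 1. Combination Emax is the second-highest inhibition in the matrix, and Bliss excess is the observed combination effect minus the expected EA + EB − EA·EB, where EA and EB are the single-agent effects.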

[2] = test system: JVM-3 (B-Cell Non-Hodgkin's Lymphoma); assay: combination Emax (second highest fraction inhibited in the dose matrix, 72 h); higher = more inhibition; extreme values may be limits of the assay
In short: as §1

[3] = test system: PANC-04-03 (Pancreatic Carcinoma); assay: as above
In short: as §1

TGW (Neuroblastoma) = assay: as above
In short: as §1
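Wherever Bliss excess, mean over the matrix is given: after 72 h of two-drug dosing.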

Structure (SMILES)	Bliss excess [1]	combination Emax [2]	combination Emax [3]	combination Emax (TGW (Neuroblastoma))
Cc1c2c(nn1C)CSCc1cc(n(C)n1)CSc1cc(c3ccccc3c1)OCCCc1c(C(=O)O)n(C)c3c-2c(Cl)ccc13 [AZD5991] + C[C@@H]1COCCN1C2=NC(=NC(=C2)C3(CC3)[S@](=N)(=O)C)C4=C5C=CNC5=NC=C4 [AZD6738] (first compound max 1 µM, 7x7, partner max 10 µM)	-0.0642	0.713	0.479	0.714
CC1(C)CCC(CN2CCN(c3ccc(C(=O)NS(=O)(=O)c4ccc(NCC5CCOCC5)c([N+](=O)[O-])c4)c(Oc4cnc5[nH]ccc5c4)c3)CC2)=C(c2ccc(Cl)cc2)C1 [Venetoclax] + C1CN(CCC1(C(=O)N[C@@H](CCO)C2=CC=C(C=C2)Cl)N)C3=NC=NC4=C3C=CN4 [Capivasertib] (first compound max 1 µM, 7x7, partner max 3 µM)	0.0192	0.636	0.199	0.465
CCc1c2c(nc3ccc(O)cc13)-c1cc3c(c(=O)n1C2)COC(=O)[C@]3(O)CC [SN-38] + O=C(c1cc(Cc2n[nH]c(=O)c3ccccc23)ccc1F)N1CCN(C(=O)C2CC2)CC1 [Olaparib] (first compound max 0.3 µM, 7x7, partner max 10 µM)	0.0365	0.998	0.465	0.668
Cc1c2c(nn1C)CSCc1cc(n(C)n1)CSc1cc(c3ccccc3c1)OCCCc1c(C(=O)O)n(C)c3c-2c(Cl)ccc13 [AZD5991] + C[C@@H](Nc1cc(F)cc(F)c1)c1cc(C(=O)N(C)C)cc2c(=O)cc(N3CCOCC3)oc12 [AZD8186] (first compound max 1 µM, 7x7, partner max 3 µM)	-0.0119	0.44	0.266	0.347
CN(C)CCCOc1ccc(-c2ccc3ncc4c(c3c2)n(C2CCOCC2)c(=O)n4C)cn1 [AZD0156] + CCN(CCO)CCCOc1ccc2c(Nc3cc(CC(=O)Nc4cccc(F)c4)[nH]n3)ncnc2c1 [AZD2811] (first compound max 1 µM, 7x7, partner max 1 µM)	-0.0252	0.543	0.0564	0.356
C[C@@H]1COCCN1c1cc(C2([S@](C)(=N)=O)CC2)nc(-c2ccnc3[nH]ccc23)n1 [AZD6738] + O=C(c1cc(Cc2n[nH]c(=O)c3ccccc23)ccc1F)N1CCN(C(=O)C2CC2)CC1 [Olaparib] (first compound max 10 µM, 7x7, partner max 10 µM)	-0.0937	0.704	0.515	0.731
C=CCn1c(=O)c2cnc(Nc3ccc(N4CCN(C)CC4)cc3)nc2n1-c1cccc(C(C)(C)O)n1 [AZD1775] + O=C(c1cc(Cc2n[nH]c(=O)c3ccccc23)ccc1F)N1CCN(C(=O)C2CC2)CC1 [Olaparib] (first compound max 1 µM, partner max 10 µM)	-0.109	0.895	0.495	0.821
CC1(C)CCC(CN2CCN(c3ccc(C(=O)NS(=O)(=O)c4ccc(NCC5CCOCC5)c([N+](=O)[O-])c4)c(Oc4cnc5[nH]ccc5c4)c3)CC2)=C(c2ccc(Cl)cc2)C1 [Venetoclax] + CCN(CCO)CCCOc1ccc2c(Nc3cc(CC(=O)Nc4cccc(F)c4)[nH]n3)ncnc2c1 [AZD2811] (first compound max 1 µM, 7x7, partner max 1 µM)	0.162	0.653	0.196	0.568
Cc1c2c(nn1C)CSCc1cc(n(C)n1)CSc1cc(c3ccccc3c1)OCCCc1c(C(=O)O)n(C)c3c-2c(Cl)ccc13 [AZD5991] + CCN(CCO)CCCOc1ccc2c(Nc3cc(CC(=O)Nc4cccc(F)c4)[nH]n3)ncnc2c1 [AZD2811] (first compound max 1 µM, 7x7, partner max 1 µM)	0.0892	0.486	0.237	0.402
CN(C)CCCOc1ccc(-c2ccc3ncc4c(c3c2)n(C2CCOCC2)c(=O)n4C)cn1 [AZD0156] + C=CCn1c(=O)c2cnc(Nc3ccc(N4CCN(C)CC4)cc3)nc2n1-c1cccc(C(C)(C)O)n1 [AZD1775] (first compound max 1 µM, partner max 1 µM)	-0.0347	0.895	0.471	0.769
C=CCn1c(=O)c2cnc(Nc3ccc(N4CCN(C)CC4)cc3)nc2n1-c1cccc(C(C)(C)O)n1 [AZD1775] + C1CN(CCC1(C(=O)N[C@@H](CCO)C2=CC=C(C=C2)Cl)N)C3=NC=NC4=C3C=CN4 [Capivasertib] (first compound max 3 µM, partner max 3 µM)	0.0012	0.971	0.571	0.889
